Reference: publication PMC3223389 (Frontiers in Pharmacology, 2011)

Target: T1, P2X2/3 receptors (Homo sapiens, UniProt P56373+Q9UBL9)
T1 sequence (Q9UBL9 1-471): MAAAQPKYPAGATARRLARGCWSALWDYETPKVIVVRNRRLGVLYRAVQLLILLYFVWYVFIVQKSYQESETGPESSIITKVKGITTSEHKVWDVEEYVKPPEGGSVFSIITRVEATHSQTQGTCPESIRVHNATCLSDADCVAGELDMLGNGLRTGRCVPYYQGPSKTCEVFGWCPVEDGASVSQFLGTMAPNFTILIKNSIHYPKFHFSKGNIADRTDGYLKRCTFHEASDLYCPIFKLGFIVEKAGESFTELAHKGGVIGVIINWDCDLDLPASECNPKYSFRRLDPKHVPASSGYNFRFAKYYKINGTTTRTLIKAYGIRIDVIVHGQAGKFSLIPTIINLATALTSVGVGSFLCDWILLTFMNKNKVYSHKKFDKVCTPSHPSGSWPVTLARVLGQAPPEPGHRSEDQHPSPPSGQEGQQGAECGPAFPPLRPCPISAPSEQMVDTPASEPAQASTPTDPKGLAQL
T1 sequence (P56373 1-397): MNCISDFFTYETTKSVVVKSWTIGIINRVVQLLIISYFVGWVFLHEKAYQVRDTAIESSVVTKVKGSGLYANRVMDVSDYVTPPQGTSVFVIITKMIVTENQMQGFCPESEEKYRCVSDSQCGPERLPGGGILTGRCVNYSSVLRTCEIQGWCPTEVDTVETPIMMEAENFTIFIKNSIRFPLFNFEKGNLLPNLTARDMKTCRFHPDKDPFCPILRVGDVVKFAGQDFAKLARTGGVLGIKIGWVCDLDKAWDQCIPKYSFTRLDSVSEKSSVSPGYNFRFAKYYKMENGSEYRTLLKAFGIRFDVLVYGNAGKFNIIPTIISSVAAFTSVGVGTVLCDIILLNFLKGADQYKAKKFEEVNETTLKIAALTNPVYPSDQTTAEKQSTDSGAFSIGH
Experiment: SyncroPatch 96 recording of P2X2/3 receptors in 1321N1 cells
Assay type: cell-based
Conditions: 10 μM, 1321N1 cell, three applications with intermittent wash steps

## Nc1ncnc2c1ncn2[C@@H]1O[C@H](COP(=O)(O)OP(=O)(O)OP(=O)(O)O)[C@@H](O)[C@H]1O [ATP]
  activation of P2X2/3 receptors: repeatedly activated
